Reference: US6271238A, “Acetamide derivatives and protease inhibitors” (Nippon Kayaku Kabushiki Kaisha, priority 1996, dated 2001)
pIC50: −log10 of the molar value. Where a name gives a salt, the structure may show the parent alone. Read-outs that look alike come from different tables or passages of the source.

Columns and labels:
Type in all cases: biochemical
Human thrombin = target: T1, Human thrombin (Homo sapiens, UniProt P00734); test: Inhibitory activity on proteases other than chymase: human thrombin
T1 construct: human thrombin
Description: (§1) (E) Measurement of inhibitory activity on proteases other than chymase
(§2) The inhibitory activity of the present compounds on human elastase, human cathepsin G, human urokinase, human thrombin, human plasmin, and human factor Xa was determined using their corresponding synthetic substrates in the same manner as for chymase. All the above proteases were those commercially available from Boehringer Mannheim or purified by a combination of known methods. The synthetic substrates were those produced by Peptide Renkyusho. The synthetic substrates for the respective proteases are as follows.
Human thrombin Benzyloxycarbonyl asparginyl prolyl arginyl
(§3) The test was conducted several times. Chymase was prepared for each test in the manner described above. The compounds examined were compounds prepared in the above-described examples.

Human plasmin = target: T2, Human plasmin (Homo sapiens, UniProt P00747); test: Inhibitory activity on proteases other than chymase: human plasmin; details: benzyloxycarbonyl valyl leucyl lyzyl methylcoumarylamide substrate; read-out: 50% Inhibitory concentration toward Human plasmin
T2 construct: human plasmin
T2 sequence (P00747 581-810 limits assumed): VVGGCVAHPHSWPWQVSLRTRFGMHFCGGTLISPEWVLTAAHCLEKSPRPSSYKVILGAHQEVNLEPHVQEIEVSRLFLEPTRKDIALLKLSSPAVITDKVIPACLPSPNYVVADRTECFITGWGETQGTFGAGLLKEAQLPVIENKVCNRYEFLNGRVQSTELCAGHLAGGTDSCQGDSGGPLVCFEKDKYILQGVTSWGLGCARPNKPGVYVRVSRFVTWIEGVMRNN
T2 sequence (P00747 97-580 partner limits assumed): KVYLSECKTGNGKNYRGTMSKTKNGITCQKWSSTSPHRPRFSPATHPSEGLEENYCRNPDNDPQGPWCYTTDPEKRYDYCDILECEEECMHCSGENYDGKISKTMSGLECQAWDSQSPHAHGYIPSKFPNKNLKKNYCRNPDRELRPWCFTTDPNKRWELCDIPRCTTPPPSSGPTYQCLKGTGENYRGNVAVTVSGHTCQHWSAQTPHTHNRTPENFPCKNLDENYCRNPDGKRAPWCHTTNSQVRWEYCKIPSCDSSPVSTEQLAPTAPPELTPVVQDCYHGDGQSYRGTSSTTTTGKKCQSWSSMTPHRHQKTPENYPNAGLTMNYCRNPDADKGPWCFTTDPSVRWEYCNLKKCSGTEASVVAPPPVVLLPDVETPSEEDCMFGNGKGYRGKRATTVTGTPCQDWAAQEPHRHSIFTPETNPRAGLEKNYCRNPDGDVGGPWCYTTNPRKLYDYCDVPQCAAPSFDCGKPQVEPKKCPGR
Description: as §1, §2
Human plasmin Benzyloxycarbonyl valyl leucyl lyzyl
as §3

rat chymase = target: T3, rat chymase (Rattus norvegicus, UniProt P09650); test: Inhibitory activity on rat chymase (synthetic substrate); details: for IC50: substrate succinyl leucyl leucyl valyl tyrosyl methylcoumarylamide, pH 8.0, 37° C., 15 min, read-out: Rat Chymase (IC50: nM), 50% inhibitory concentration
T3 construct: 50 g rat tongue was finely divided by scissors and a scalpel; from tissue; host or cells: rat tongue
T3 sequence (P09650 21-260): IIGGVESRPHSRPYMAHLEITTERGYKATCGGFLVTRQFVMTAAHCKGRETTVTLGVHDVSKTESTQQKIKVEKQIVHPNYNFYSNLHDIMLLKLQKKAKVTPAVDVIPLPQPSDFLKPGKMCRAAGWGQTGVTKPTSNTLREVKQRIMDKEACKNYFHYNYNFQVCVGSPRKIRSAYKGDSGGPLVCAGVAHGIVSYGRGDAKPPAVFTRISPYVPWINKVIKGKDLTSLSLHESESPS
Description: In the present invention, chymase was purified by the methods described in these literatures, and the present compounds were examined for inhibitory activity on chymase, inhibitory action on activation of mast cells and eosinophils, and pharmacological action in animals. Hereinafter, specific methods are described. […] 50 g rat tongue was finely divided by scissors and a scalpel, suspended in 0.1 M phosphate buffer (pH 8.0), and disrupted by a Polytron homogenizer for 5 minutes to prepare a crude chymase enzyme solution. […] The supernatant was applied to an octyl Sepharose 4B column (40×100 mm) previously equilibrated with 0.1 M phosphate buffer (pH 8.0) containing 2 M sodium chloride and 5% ammonium sulfate, and the protein was eluted with a linear concentration gradient of from 2 M to 0 M sodium chloride. […] (D) Measurement of inhibitory activity on chymase (a) Measurement using the synthetic substrate The synthetic chymase substrate was used for measurement of the inhibitory activity on the rat chymase as a subtrate, and the fluorescence of formed aminomethylcoumarin after reaction was measured by a spectrophotometer. […] The test was conducted several times. Chymase was prepared for each test in the manner described above. The compounds examined were compounds prepared in the above-described examples. […] Succinyl leucyl leucyl valyl tyrosyl methylcoumarylamide (for rat […] angiotensin I (for human and dog chymase)

human chymase = target: T4, human chymase (Homo sapiens, UniProt P23946); test: Inhibitory activity on human chymase (angiotensin I as substrate); details: for IC50: substrate angiotensin I, pH 8.0, 37° C., 60 min, read-out: Human Chymase (IC50: nM), 50% inhibitory concentration
T4 construct: 60 g human tonsils were finely divided by scissors and a scalpel; from tissue; host or cells: human tonsils
T4 sequence (P23946 22-247): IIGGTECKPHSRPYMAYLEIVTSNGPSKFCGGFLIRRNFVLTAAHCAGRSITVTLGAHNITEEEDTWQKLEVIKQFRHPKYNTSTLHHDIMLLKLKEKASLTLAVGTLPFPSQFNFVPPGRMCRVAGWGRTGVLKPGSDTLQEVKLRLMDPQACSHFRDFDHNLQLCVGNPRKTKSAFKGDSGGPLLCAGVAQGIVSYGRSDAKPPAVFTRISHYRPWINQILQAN
Excerpt: It is known that chymase is present in tissues of various animals, and its isolation and purification methods are described in Anal. Biochem., 137, 449 (1984) and FEBS Letters, 323, 119 (1993). In the present invention, chymase was purified by the methods described in these literatures, and the present compounds were examined for inhibitory activity on chymase, inhibitory action on activation of mast cells and eosinophils, and pharmacological action in animals. Hereinafter, specific methods are described. 50 g rat tongue was finely divided by scissors and a scalpel, suspended in 0.1 M phosphate buffer (pH 8.0), and disrupted by a Polytron homogenizer for 5 minutes to prepare a crude chymase enzyme solution. […] The supernatant was applied to an octyl Sepharose 4B column (40×100 mm) previously equilibrated with 0.1 M phosphate buffer (pH 8.0) containing 2 M sodium chloride and 5% ammonium sulfate, and the protein was eluted with a linear concentration gradient of from 2 M to 0 M sodium chloride. An active fraction decomposing succinyl leucyl leucyl valyl tyrosyl methylcumarylamide (hereinafter referred to as the synthetic chymase substrate, a product of Peptide Kenkyusho) was recovered and concentrated and this product was used as a purified rat chymase in the following activity measurement. (B) Preparation of human chymase 60 g human tonsils were finely divided by scissors and a scalpel, suspended in 0.1 M phosphate buffer (pH 8.0), and A-disrupted by a Polytron homogenizer for 5 minutes to prepare a crude chymase enzyme solution. It was centrifuged at 22000×g for 30 minutes, and the precipitates were used as a chymase enzyme fraction. […] The supernatant was concentrated by an ultrafiltration membrane, then applied to […] column (6.0×300 mm), and eluted with 0.1 M phosphate buffer (pH 8.0). An active fraction decomposing the synthetic chymase substrate was recovered and concentrated and this product was used as a purified human chymase in the following activity measurement. (D) Measurement of inhibitory activity on chymase (b) Measurement using angiotensin I as substrate The inhibitory activity on the human chymase and dog chymase was measured using angiotensin I (Peptide Kenkyusho) as substrate besides the above synthetic substrate. […] After the end of the reaction, produced angiotensin II was immediately measured by high performance liquid chromatography to determine the activity of the chymase to calculate 50% inhibitory concentration (IC50: nM). The test was conducted several times. Chymase was prepared for each test in the manner described above. The compounds examined were compounds prepared in the above-described examples. […] 50% Inhibitory concentration (IC50: nM) of each compound toward rat chymase, dog […] human […] Substrate: Succinyl leucyl leucyl valyl tyrosyl methylcoumarylamide (for rat […] angiotensin I (for human and dog chymase)

Human urokinase = Human urokinase (Homo sapiens, UniProt P00749); test: Inhibitory activity on proteases other than chymase: human urokinase; details: pyridyl glycyl arginyl methylcoumarylamide substrate; read-out: 50% Inhibitory concentration toward Human urokinase
Description: as §2, with “(E) Measurement of inhibitory activity on proteases other than chymase The inhibitory” for “The inhibitory”, “as follows. |Human urokinase Pyridyl glycyl arginyl methylcoumarylamide The test was conducted several times. Chymase was prepared for each test in the manner described above. The compounds examined were compounds prepared in the above-described examples.” for “as follows.”

Human factor Xa = target: T5, Human factor Xa (Homo sapiens, UniProt P00742); test: Inhibitory activity on proteases other than chymase: human factor Xa
T5 construct: human factor Xa
T5 sequence (P00742 235-488 limits assumed): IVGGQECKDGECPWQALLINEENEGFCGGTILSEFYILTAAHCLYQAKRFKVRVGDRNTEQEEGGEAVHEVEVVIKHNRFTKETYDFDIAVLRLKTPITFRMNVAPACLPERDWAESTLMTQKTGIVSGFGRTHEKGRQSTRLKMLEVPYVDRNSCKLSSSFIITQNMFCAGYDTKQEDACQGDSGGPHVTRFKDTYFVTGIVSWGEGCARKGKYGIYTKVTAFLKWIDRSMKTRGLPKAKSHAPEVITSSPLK
T5 sequence (P00742 41-179 partner limits assumed): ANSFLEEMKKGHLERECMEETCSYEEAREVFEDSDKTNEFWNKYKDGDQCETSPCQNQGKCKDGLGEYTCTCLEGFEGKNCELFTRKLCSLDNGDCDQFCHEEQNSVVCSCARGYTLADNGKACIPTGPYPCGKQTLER
Description: as §1, §2
Human factor Xa Phenylmethyloxycarbonyl pyridyl glycyl arginyl
as §3

other human proteases = test: Inhibitory activity on other human proteases (summary)
Description: as §1, §2, §3

Compound `Nc1cnc(-c2ccccc2)n(CC(=O)NC(Cc2ccccc2)C(=O)C(=O)CCCc2ccccc2)c1=O` (centres unmarked) [Compound 40] has a pIC50 (Human thrombin) of less than 5.00, a pIC50 (Human plasmin) of less than 5.00 and an IC50 (rat chymase) of 46 nM. For the same compound, the IC50 (human chymase) was 190 nM, the pIC50 (Human urokinase) was less than 5.00 and the pIC50 (Human factor Xa) was less than 5.00.

Work on `CCCCC(=O)C(=O)C(Cc1ccccc1)NC(=O)Cn1c(-c2ccccc2)ncc(N)c1=O` (centres unmarked) [Compound 44] yielded an IC50 (rat chymase) of 79 nM and an IC50 (human chymase) of 146 nM.

In the case of `CC(=O)C(=O)C(Cc1cccc(F)c1)NC(=O)Cn1c(-c2ccccc2)ncc(N)c1=O` (centres unmarked) [Compound 52, 2-(5-Amino-6-oxo-2-phenyl-1,6-dihydropyrimidine-1-yl)-N-{1-(3-fluorophenyl)methyl-2,3-dioxo}butylacetamide], the pIC50 (Human thrombin) was less than 5.00, the pIC50 (Human plasmin) was less than 5.00 and the IC50 (rat chymase) was 190 nM. For the same compound, the IC50 (human chymase) was 120 nM, the pIC50 (Human urokinase) was less than 5.00 and the pIC50 (Human factor Xa) was less than 5.00.

With `CCOC(=O)CCCC(=O)C(=O)C(Cc1cccc(F)c1)NC(=O)Cn1c(-c2ccccc2)ncc(N)c1=O` (centres unmarked) [Compound 54] the “inhibitory activity on other human proteases, in words” value (other human proteases) was “no inhibitory activity on other human proteases”, the IC50 (rat chymase) was 45 nM and the “inhibitory activity on human chymase, in words” value (human chymase) was “strong inhibitory activity on human chymase”. It also gave an IC50 (human chymase) of 36 nM.

With `CC(C)(C)OC(=O)Nc1cnc(-c2ccccc2)n(CC(=O)NC(Cc2ccccc2)C(=O)C(=O)CCCn2ccccc2=O)c1=O` (centres unmarked) [Compound 72, 2-(5-t-Butyloxycarbonylamino-6-oxo-2-phenyl-1,6-dihydropyrimidine-1-yl)-N-{2,3-dioxo-6-(2-oxo-1,2-dihydropyridine-1-yl)-1-phenylmethyl}hexylacetamide] the pIC50 (Human thrombin) was less than 5.00, the “inhibitory activity on other human proteases, in words” value (other human proteases) was “no inhibitory activity on other human proteases” and the pIC50 (Human plasmin) was less than 5.00. For the same compound, the IC50 (rat chymase) was 2100 nM, the “inhibitory activity on human chymase, in words” value (human chymase) was “strong inhibitory activity on human chymase” and the IC50 (human chymase) was 90 nM. For the same compound, the pIC50 (Human urokinase) was less than 5.00 and the pIC50 (Human factor Xa) was less than 5.00.

`Nc1cnc(-c2ccccc2)n(CC(=O)NC(Cc2ccccc2)C(=O)C(=O)CCCn2ccccc2=O)c1=O` (centres unmarked) [Compound 73, 2-(5-Amino-6-oxo-2-phenyl-1,6-dihydropyrimidine-1-yl)-N-{2,3-dioxo-1-phenylmethyl-6-(2-oxo-1,2-dihydropyridine-1-yl)}hexylacetamide hydrochloride] was tested, and the “inhibitory activity on other human proteases, in words” value (other human proteases) was “no inhibitory activity on other human proteases”, the IC50 (rat chymase) was 550 nM and the “inhibitory activity on human chymase, in words” value (human chymase) was “strong inhibitory activity on human chymase”. The IC50 (human chymase) was 46 nM.

With `CC(C)(C)OC(=O)Nc1cnc(-c2ccccc2)n(CC(=O)NC(Cc2ccccc2)C(=O)C(=O)CCCOc2ccccn2)c1=O` (centres unmarked) [Compound 74, 2-(5-t-Butyloxycarbonylamino-6-oxo-2-phenyl-1,6-dihydropyrimidine-1-yl)-N-{2,3-dioxo-6-(2-pyridyloxy)-1-phenylmethyl}hexylacetamide] the pIC50 (Human thrombin) was less than 5.00, the “inhibitory activity on other human proteases, in words” value (other human proteases) was “no inhibitory activity on other human proteases” and the pIC50 (Human plasmin) was less than 5.00. The IC50 (rat chymase) was 510 nM, the “inhibitory activity on human chymase, in words” value (human chymase) was “strong inhibitory activity on human chymase” and the IC50 (human chymase) was 11 nM. The pIC50 (Human urokinase) was less than 5.00 and the pIC50 (Human factor Xa) was less than 5.00.

`O=CNc1cnc(-c2ccccc2)n(CC(=O)NC(Cc2ccccc2)C(=O)C(=O)CCCOc2ccccn2)c1=O` (centres unmarked) [Compound 79, 2-(5-Formylamino-6-oxo-2-phenyl-1,6-dihydropyrimidine-1-yl)-N-{2,3-dioxo-1-phenylmethyl-6-(2-pyridyloxy)}hexylacetamide] was tested, and the pIC50 (Human thrombin) was less than 5.00, the “inhibitory activity on other human proteases, in words” value (other human proteases) was “no inhibitory activity on other human proteases” and the pIC50 (Human plasmin) was less than 5.00. For the same compound, the IC50 (rat chymase) was 19 nM, the “inhibitory activity on human chymase, in words” value (human chymase) was “strong inhibitory activity on human chymase” and the IC50 (human chymase) was 2.4 nM. It also gave a pIC50 (Human urokinase) of less than 5.00 and a pIC50 (Human factor Xa) of less than 5.00.

In the case of `CC(=O)Nc1cnc(-c2ccccc2)n(CC(=O)NC(Cc2ccccc2)C(=O)C(=O)CCCOc2ccccn2)c1=O` (centres unmarked) [Compound 80, 2-(5-Acetylamino-6-oxo-2-phenyl-1,6-dihydropyrimidine1-yl)-N-{2,3-dioxo-1-phenylmethyl-6-(-2-pyridyloxy)}hexyl-acetamide], the pIC50 (Human thrombin) was less than 5.00, the “inhibitory activity on other human proteases, in words” value (other human proteases) was “no inhibitory activity on other human proteases” and the pIC50 (Human plasmin) was less than 5.00. For the same compound, the IC50 (rat chymase) was 52 nM, the “inhibitory activity on human chymase, in words” value (human chymase) was “strong inhibitory activity on human chymase” and the IC50 (human chymase) was 0.9 nM. It also gave a pIC50 (Human urokinase) of less than 5.00 and a pIC50 (Human factor Xa) of less than 5.00.

In the case of `O=C(Cn1c(-c2ccccc2)ncc(NS(=O)(=O)NCc2ccccc2)c1=O)NC(Cc1ccccc1)C(=O)C(=O)CCCOc1ccccn1` (centres unmarked) [Compound 82, 2-(5-Benzylaminosulfonylamino-6-oxo-2-phenyl-1,6-dihydropyrimidine-1-yl)-N-{2,3-dioxo-1-phenylmethyl-6-(2-pyridyloxy)}hexylacetamide], the pIC50 (Human thrombin) was less than 5.00, the “inhibitory activity on other human proteases, in words” value (other human proteases) was “no inhibitory activity on other human proteases” and the pIC50 (Human plasmin) was less than 5.00. For the same compound, the pIC50 (rat chymase) was 7.72, the “inhibitory activity on human chymase, in words” value (human chymase) was “strong inhibitory activity on human chymase” and the IC50 (human chymase) was 0.74 nM. For the same compound, the pIC50 (Human urokinase) was less than 5.00 and the pIC50 (Human factor Xa) was less than 5.00.
